Experiments:
[1] = molecular target: Protein arginine N-methyltransferase 5 (Homo sapiens, UniProt O14744); test: Binding affinity to PRMT5 (unknown origin) assessed as inhibition constant
[2] = molecular target: T1, Protein arginine N-methyltransferase 7 (Homo sapiens, UniProt Q9NVM4); test: Inhibition of PRMT7 (unknown origin)
T1 sequence (Q9NVM4 whole entry): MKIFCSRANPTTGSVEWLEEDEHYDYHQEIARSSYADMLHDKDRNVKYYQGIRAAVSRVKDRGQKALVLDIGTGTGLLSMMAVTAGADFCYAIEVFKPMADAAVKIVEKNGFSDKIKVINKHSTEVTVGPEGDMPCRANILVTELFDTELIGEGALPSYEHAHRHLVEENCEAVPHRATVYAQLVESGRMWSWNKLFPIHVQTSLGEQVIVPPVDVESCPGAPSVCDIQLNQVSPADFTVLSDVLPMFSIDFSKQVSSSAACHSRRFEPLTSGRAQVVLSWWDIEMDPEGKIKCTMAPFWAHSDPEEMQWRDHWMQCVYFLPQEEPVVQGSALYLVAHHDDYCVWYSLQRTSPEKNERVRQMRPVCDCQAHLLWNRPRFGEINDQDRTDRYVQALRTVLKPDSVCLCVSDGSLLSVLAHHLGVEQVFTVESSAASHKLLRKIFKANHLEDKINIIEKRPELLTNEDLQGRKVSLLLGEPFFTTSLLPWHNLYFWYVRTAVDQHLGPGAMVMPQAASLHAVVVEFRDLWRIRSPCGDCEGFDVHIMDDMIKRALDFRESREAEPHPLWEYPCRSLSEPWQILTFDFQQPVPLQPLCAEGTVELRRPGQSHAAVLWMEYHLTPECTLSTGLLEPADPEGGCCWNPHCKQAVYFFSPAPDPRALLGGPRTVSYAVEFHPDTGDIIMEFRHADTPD

[3] = Microsomal stability in rat liver microsomes assessed as remaining compound after 1 hr incubation; type: ADME, Microsome; conditions: read-out: Stability
[4] = molecular target: T2, Histone-lysine N-methyltransferase SMYD3 (Homo sapiens, UniProt Q9H7B4); test: Inhibition of SMYD3 (unknown origin)
T2 sequence (Q9H7B4 whole entry): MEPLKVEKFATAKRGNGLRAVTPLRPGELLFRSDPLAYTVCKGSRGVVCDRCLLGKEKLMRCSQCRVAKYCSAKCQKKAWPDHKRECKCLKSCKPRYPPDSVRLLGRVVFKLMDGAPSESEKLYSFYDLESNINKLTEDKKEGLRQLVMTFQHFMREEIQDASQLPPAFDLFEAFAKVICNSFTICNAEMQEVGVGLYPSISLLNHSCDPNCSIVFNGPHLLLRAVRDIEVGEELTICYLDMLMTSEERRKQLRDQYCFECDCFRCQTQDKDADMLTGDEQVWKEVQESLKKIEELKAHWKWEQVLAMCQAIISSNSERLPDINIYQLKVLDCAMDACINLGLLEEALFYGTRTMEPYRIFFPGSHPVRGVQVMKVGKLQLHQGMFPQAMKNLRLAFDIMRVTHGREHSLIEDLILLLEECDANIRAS

Protein arginine N-methyltransferase 5, sequence (O14744 whole entry): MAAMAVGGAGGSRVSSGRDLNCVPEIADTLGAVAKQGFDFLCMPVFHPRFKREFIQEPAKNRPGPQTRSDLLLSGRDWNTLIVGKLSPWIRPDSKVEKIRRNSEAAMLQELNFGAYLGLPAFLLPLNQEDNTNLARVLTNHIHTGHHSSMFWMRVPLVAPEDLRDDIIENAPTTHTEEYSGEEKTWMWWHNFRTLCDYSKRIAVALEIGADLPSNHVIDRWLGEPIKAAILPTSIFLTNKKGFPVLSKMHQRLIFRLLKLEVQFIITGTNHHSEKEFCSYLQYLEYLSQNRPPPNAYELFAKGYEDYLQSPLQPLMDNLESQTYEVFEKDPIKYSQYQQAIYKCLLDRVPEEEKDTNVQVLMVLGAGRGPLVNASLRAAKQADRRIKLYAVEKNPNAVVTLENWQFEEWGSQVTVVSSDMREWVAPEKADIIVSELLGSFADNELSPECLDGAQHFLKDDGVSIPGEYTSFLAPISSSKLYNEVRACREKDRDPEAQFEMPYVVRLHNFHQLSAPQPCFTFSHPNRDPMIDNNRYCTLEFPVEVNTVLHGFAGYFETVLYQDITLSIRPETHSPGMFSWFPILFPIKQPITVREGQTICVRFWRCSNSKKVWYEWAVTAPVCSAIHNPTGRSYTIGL

For `Nc1ncnc2c1ccn2[C@H]1O[C@@H]([C@H](O)c2ccc(Cl)c(F)c2)[C@H](O)[C@@H]1O`, the Ki [1] was 0.02 nM.

In the case of `Nc1ncnc2c1ncn2[C@@H]1O[C@H](CSCCCCNCc2cccc(-c3ccc(Cl)cc3)c2)[C@@H](O)[C@H]1O`, the IC50 [2] is reported as less than 2.5 nM.

`COc1cccc(CCNC(=O)[C@H](CC[C@@H](CNCc2ccccc2)C[C@H]2O[C@@H](n3cnc4c(N)ncnc43)[C@H](O)[C@@H]2O)NC(=O)CC(C)(C)C2=C(C)C(=O)C(C)=C(C)C2=O)c1` showed a remaining at 1 h [3] of 24%.

In the case of `CN(C)CCCN(CC[C@H](N)C(=O)O)C[C@@H]1O[C@H](n2cnc3c(N)ncnc32)[C@@H](O)[C@H]1O`, the IC50 [4] is reported as 130 nM.
